# Experimental data: ChEMBL document CHEMBL1201862, “PubChem BioAssay data set” (2004)
#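 Five compound concentrations were applied to cells in 96-well plates for 48 hours; endpoints were derived by simple linear interpolation of the resulting dose-response curve. Here, GI50 denotes the concentration required for 50% inhibition of growth.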 Calls of active or inactive are those of the source. No stated cut-off is given here; in the data, active = GI50 up to about 1.1 µM and inactive = higher.
# Experiments:
# Experiment in all cases: DTP human tumour cell line panel, 48 h
# HT-29 = test system: HT-29
# CCRF-CEM = test system: CCRF-CEM
# HCC 2998 = test system: HCC 2998
# OVCAR-3 = test system: OVCAR-3
# HL-60 = test system: HL-60
# DMS-273 = test system: DMS-273
# SNB-19 = test system: SNB-19
# OVCAR-8 = test system: OVCAR-8
# UO-31 = test system: UO-31
# UACC-62 = test system: UACC-62
# KM12 = test system: KM12
# TK-10 = test system: TK-10
# HCT-116 = test system: HCT-116
# HOP-92 = test system: HOP-92
# RPMI-8226 = test system: RPMI-8226
# M19-MEL = test system: M19-MEL
# SF-295 = test system: SF-295
# Malme-3M = test system: Malme-3M
# HOP-62 = test system: HOP-62
# LXFL 529 = test system: LXFL 529
# IGROV-1 = test system: IGROV-1
# 786-0 = test system: 786-0
# EKVX = test system: EKVX
# HCT-15 = test system: HCT-15
# M14 = test system: M14
# HOP-18 = test system: HOP-18
# ACHN = test system: ACHN
# U-251 = test system: U-251
# COLO 205 = test system: COLO 205
# SW-620 = test system: SW-620
# KM-20L2 = test system: KM-20L2
# SK-MEL-5 = test system: SK-MEL-5
# SNB-75 = test system: SNB-75
# SF-539 = test system: SF-539
# SK-OV-3 = test system: SK-OV-3
# MOLT-4 = test system: MOLT-4
# NCI-H226 = test system: NCI-H226
# NCI-H460 = test system: NCI-H460
# SK-MEL-2 = test system: SK-MEL-2
# OVCAR-5 = test system: OVCAR-5
# K562 = test system: K562
# NCI-H522 = test system: NCI-H522
# LOX IMVI = test system: LOX IMVI
# NCI-H23 = test system: NCI-H23
# SN12C = test system: SN12C
# UACC-257 = test system: UACC-257
# OVCAR-4 = test system: OVCAR-4
# DLD-1 = test system: DLD-1
# CAKI-1 = test system: CAKI-1
# A498 = test system: A498
# SF-268 = test system: SF-268
# DU-145 = test system: DU-145
# SK-MEL-28 = test system: SK-MEL-28
# Hs-578T = test system: Hs-578T
# MDA-N = test system: MDA-N
# NCI/ADR-RES = test system: NCI/ADR-RES
# MDA-MB-231 = test system: MDA-MB-231
# SR = test system: SR
# A549 = test system: A549
# MCF7 = test system: MCF7
# BT-549 = test system: BT-549
# T47D = test system: T47D
# MDA-MB-435 = test system: MDA-MB-435
# PC-3 = test system: PC-3
# RXF 393 = test system: RXF 393
smiles,measurement,setting,value
CCCCCCC1NN(C(C)=O)C(CCCCCC)NN1C(C)=O (stereo unspecified),GI50,HT-29,> 100 µM (inactive)
same,GI50,CCRF-CEM,42.2 µM (inactive)
same,GI50,HCC 2998,> 100 µM (inactive)
same,GI50,OVCAR-3,> 100 µM (inactive)
same,GI50,HL-60,46.5 µM (inactive)
same,GI50,DMS-273,> 100 µM (inactive)
same,GI50,SNB-19,> 100 µM (inactive)
same,GI50,OVCAR-8,> 100 µM (inactive)
same,GI50,UO-31,> 100 µM (inactive)
same,GI50,UACC-62,> 100 µM (inactive)
same,GI50,KM12,> 100 µM (inactive)
same,GI50,TK-10,> 100 µM (inactive)
same,GI50,HCT-116,> 100 µM (inactive)
same,GI50,HOP-92,> 100 µM (inactive)
same,GI50,RPMI-8226,24 µM (inactive)
same,GI50,M19-MEL,> 100 µM (inactive)
same,GI50,SF-295,> 100 µM (inactive)
same,GI50,Malme-3M,> 100 µM (inactive)
same,GI50,HOP-62,> 100 µM (inactive)
same,GI50,LXFL 529,> 100 µM (inactive)
same,GI50,IGROV-1,> 100 µM (inactive)
same,GI50,786-0,> 100 µM (inactive)
same,GI50,EKVX,> 100 µM (inactive)
same,GI50,HCT-15,> 100 µM
same,GI50,M14,> 100 µM (inactive)
same,GI50,HOP-18,> 100 µM (inactive)
same,GI50,ACHN,> 100 µM (inactive)
same,GI50,U-251,> 100 µM (inactive)
same,GI50,COLO 205,> 100 µM (inactive)
same,GI50,SW-620,20.4 µM (inactive)
same,GI50,KM-20L2,> 100 µM (inactive)
same,GI50,SK-MEL-5,> 100 µM (inactive)
same,GI50,SNB-75,> 100 µM (inactive)
same,GI50,SF-539,> 100 µM (inactive)
same,GI50,SK-OV-3,> 100 µM (inactive)
same,GI50,MOLT-4,> 100 µM (inactive)
same,GI50,NCI-H226,> 100 µM (inactive)
same,GI50,NCI-H460,17.7 µM (inactive)
same,GI50,SK-MEL-2,> 100 µM (inactive)
same,GI50,OVCAR-5,> 100 µM (inactive)
same,GI50,K562,32 µM (inactive)
same,GI50,NCI-H522,> 100 µM (inactive)
same,GI50,LOX IMVI,19.9 µM (inactive)
same,GI50,NCI-H23,> 100 µM (inactive)
same,GI50,SN12C,> 100 µM (inactive)
same,GI50,UACC-257,> 100 µM (inactive)
same,GI50,OVCAR-4,> 100 µM (inactive)
same,GI50,DLD-1,52.1 µM (inactive)
same,GI50,CAKI-1,> 100 µM (inactive)
CC(C)c1cc(C(C)C)c(P2(=O)CC3C(Cl)(Cl)C3(C)C2)c(C(C)C)c1 (stereo unspecified),GI50,HT-29,9.33 µM (inactive)
same,GI50,A498,13.8 µM (inactive)
same,GI50,CCRF-CEM,2.24 µM (inactive)
same,GI50,HCC 2998,13.4 µM (inactive)
same,GI50,OVCAR-3,7.57 µM (inactive)
same,GI50,HL-60,4.2 µM (inactive)
same,GI50,SNB-19,7.91 µM (inactive)
same,GI50,OVCAR-8,7.67 µM (inactive)
same,GI50,UO-31,1.86 µM (inactive)
same,GI50,UACC-62,8.04 µM (inactive)
same,GI50,KM12,10.6 µM (inactive)
same,GI50,TK-10,12.1 µM (inactive)
same,GI50,HCT-116,7.29 µM (inactive)
same,GI50,HOP-92,12.2 µM (inactive)
same,GI50,RPMI-8226,3.24 µM (inactive)
same,GI50,SF-295,7.31 µM (inactive)
same,GI50,Malme-3M,17.5 µM (inactive)
same,GI50,HOP-62,10.3 µM (inactive)
same,GI50,SF-268,12.1 µM (inactive)
same,GI50,IGROV-1,12.1 µM (inactive)
same,GI50,786-0,6.22 µM (inactive)
same,GI50,EKVX,15.8 µM (inactive)
same,GI50,HCT-15,9.53 µM
same,GI50,DU-145,14.5 µM (inactive)
same,GI50,M14,8.71 µM (inactive)
same,GI50,ACHN,12.5 µM (inactive)
same,GI50,SK-MEL-28,15.8 µM (inactive)
same,GI50,U-251,8.67 µM (inactive)
same,GI50,COLO 205,11.7 µM (inactive)
same,GI50,Hs-578T,17.3 µM (inactive)
same,GI50,SW-620,7.55 µM (inactive)
same,GI50,MDA-N,10.9 µM (inactive)
same,GI50,SK-MEL-5,10.1 µM (inactive)
same,GI50,NCI/ADR-RES,6.04 µM (inactive)
same,GI50,SNB-75,11.6 µM (inactive)
same,GI50,SF-539,14 µM (inactive)
same,GI50,SK-OV-3,16.4 µM (inactive)
same,GI50,MDA-MB-231,11.4 µM (inactive)
same,GI50,MOLT-4,2.77 µM (inactive)
same,GI50,NCI-H226,16.7 µM (inactive)
same,GI50,NCI-H460,11.5 µM (inactive)
same,GI50,SK-MEL-2,11.3 µM (inactive)
same,GI50,SR,1.74 µM (inactive)
same,GI50,OVCAR-5,16.3 µM (inactive)
same,GI50,K562,8.95 µM (inactive)
same,GI50,NCI-H522,2.09 µM (inactive)
same,GI50,A549,9.33 µM (inactive)
same,GI50,MCF7,7.31 µM (inactive)
same,GI50,BT-549,13.7 µM (inactive)
same,GI50,LOX IMVI,6.68 µM (inactive)
same,GI50,NCI-H23,9.55 µM (inactive)
same,GI50,T47D,6.44 µM (inactive)
same,GI50,MDA-MB-435,9.73 µM (inactive)
same,GI50,PC-3,6.7 µM (inactive)
same,GI50,SN12C,12.3 µM (inactive)
same,GI50,UACC-257,7.96 µM (inactive)
same,GI50,RXF 393,12.9 µM (inactive)
same,GI50,OVCAR-4,4.94 µM (inactive)
same,GI50,CAKI-1,4.71 µM (inactive)
CCOC(=O)/C(C#N)=C1/Sc2c(ncn(/N=C/c3ccc(OC)cc3)c2=O)N1c1ccccc1,GI50,HT-29,70.6 µM (inactive)
same,GI50,CCRF-CEM,> 100 µM (inactive)
same,GI50,HCC 2998,> 100 µM (inactive)
same,GI50,OVCAR-3,41.4 µM (inactive)
same,GI50,HL-60,> 100 µM (inactive)
same,GI50,SNB-19,33.5 µM (inactive)
same,GI50,OVCAR-8,40.6 µM (inactive)
same,GI50,UO-31,> 100 µM (inactive)
same,GI50,UACC-62,31.1 µM (inactive)
same,GI50,KM12,> 100 µM (inactive)
same,GI50,TK-10,50.2 µM (inactive)
same,GI50,HCT-116,> 100 µM (inactive)
same,GI50,HOP-92,13.9 µM (inactive)
same,GI50,RPMI-8226,> 100 µM (inactive)
same,GI50,M19-MEL,74 µM (inactive)
same,GI50,SF-295,19.1 µM (inactive)
same,GI50,HOP-62,22.2 µM (inactive)
same,GI50,SF-268,14.8 µM (inactive)
same,GI50,LXFL 529,41.1 µM (inactive)
same,GI50,IGROV-1,56.2 µM (inactive)
same,GI50,ACHN,> 100 µM (inactive)
same,GI50,SK-MEL-28,28.7 µM (inactive)
same,GI50,U-251,37.4 µM (inactive)
same,GI50,COLO 205,> 100 µM (inactive)
same,GI50,SW-620,> 100 µM (inactive)
same,GI50,SK-MEL-5,> 100 µM (inactive)
same,GI50,SF-539,14.8 µM (inactive)
same,GI50,SK-OV-3,40.4 µM (inactive)
same,GI50,MOLT-4,> 100 µM (inactive)
same,GI50,NCI-H226,36.1 µM (inactive)
same,GI50,NCI-H460,28.9 µM (inactive)
same,GI50,SR,> 100 µM (inactive)
same,GI50,K562,62.5 µM (inactive)
same,GI50,NCI-H522,25.4 µM (inactive)
same,GI50,A549,67.8 µM (inactive)
same,GI50,NCI-H23,54.8 µM (inactive)
same,GI50,UACC-257,29.2 µM (inactive)
same,GI50,DLD-1,> 100 µM (inactive)
